Assay results: patent publication US10251394B2, “Molecules having pesticidal utility, and intermediates, compositions, and processes, related thereto” (Dow AgroSciences LLC, priority 2016, dated 2019)

Key:
[1] = tested on: Cabbage Looper (Trichoplusia ni); assay: Bioassay on Cabbage Looper (CL), 128-well diet tray assay; format: in vivo; settings: for mortality at 0.05 µg/cm2: 0.05 μg/cm^2 on artificial diet; for mortality at 0.5 µg/cm2: 0.5 μg/cm^2 on artificial diet; for pest or weed control at 50 µg/cm2: Cabbage Looper, Table ABC, read-out: CL rating
Method in brief: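 Mortality after five to seven days at 25° C (14:10 photoperiod), averaged over eight wells per compound. Diet in each well carried 50 μg/cm^2 of dried test molecule and received one to five second-instar larvae.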

[2] = tested on: Beet Armyworm (Spodoptera exigua); assay: Bioassay on Beet Armyworm (BAW), 128-well diet tray assay; format: in vivo; settings: for mortality at 0.05 µg/cm2: 0.05 μg/cm^2 on artificial diet; for mortality at 0.5 µg/cm2: 0.5 μg/cm^2 on artificial diet; for pest or weed control at 50 µg/cm2: Beet Armyworm, Table ABC, read-out: BAW rating
Method in brief: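 Percent mortality, averaged over eight wells, was scored after five to seven days at 25° C under 14:10 light-dark. Each well's diet carried 50 μg/cm^2 of test molecule applied in acetone-water (90:10) and dried before one to five second-instar larvae were added.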

[3] = 168 h, second instar larvae, five to seven days, read-out: CL Percent control (or mortality)
[4] = 168 h, second instar larvae, five to seven days, read-out: BAW Percent control (or mortality)

Structure (SMILES) | mortality at 0.05 µg/cm2 [1, 3] [%] | mortality at 0.5 µg/cm2 [1, 3] [%] | pest or weed control at 50 µg/cm2 [1] [%] | mortality at 0.05 µg/cm2 [2, 4] [%] | mortality at 0.5 µg/cm2 [2, 4] [%] | pest or weed control at 50 µg/cm2 [2] [%] | mortality at 5 µg/cm2 ([1]; 168 h, 5 μg/cm^2 on artificial diet, second instar larvae, five to seven days, read-out: CL Percent control (or mortality)) [%] | mortality at 5 µg/cm2 ([2]; 168 h, 5 μg/cm^2 on artificial diet, second instar larvae, five to seven days, read-out: BAW Percent control (or mortality)) [%]
Cc1cc(/C(F)=C/C(c2cc(Cl)c(Cl)c(Cl)c2)C(F)(F)F)ccc1C(=O)NCC(=O)NCC(F)(F)F (centres unmarked) [F6, (Z)-2-Methyl-N-(2-oxo-2-((2,2,2-trifluoroethyl)amino)ethyl)-4-(1,4,4,4-tetrafluoro-3-(3,4,5-trichlorophenyl)but-1-en-1-yl)benzamide] | 100 | 100 | 50 to 100 | 100 | 100 | 50 to 100 |  | 
O=C(NC1(C(=O)NC2CC(F)(F)C2)CC1)c1ccc(/C(F)=C/C(c2cc(Cl)c(Cl)c(Cl)c2)C(F)(F)F)cc1C(F)(F)F (centres unmarked) [F101, (Z)—N-(1-((3,3-Difluorocyclobutyl)carbamoyl)cyclopropyl)-4-(1,4,4,4-tetrafluoro-3-(3,4,5-trichlorophenyl)but-1-en-1-yl)-2-(trifluoromethyl)benzamide] |  |  | 50 to 100 |  |  | 50 to 100 |  | 
CN(CC(F)(F)F)C(=O)C1(NC(=O)c2ccc(/C(F)=C/C(c3ccc(Br)c(Cl)c3)C(F)(F)F)cc2C(F)(F)F)CC1 (centres unmarked) [PF28, (Z)-4-(3-(4-Bromo-3-chlorophenyl)-1,4,4,4-tetrafluorobut-1-en-1-yl]-N-(1-(methyl(2,2,2-trifluoroethyl)carbamoyl)cyclopropyl)-2-(trifluoromethyl)benzamide] |  |  | 50 to 100 |  |  | 50 to 100 |  | 
CC(F)(F)C(/C=C(\F)c1ccc(C(=O)NC2(C(=O)NCC(F)(F)F)CC2)c(Cl)c1)c1cc(Cl)c(Cl)c(Cl)c1 (centres unmarked) [PF62, (Z)-2-Chloro-4-(1,4,4-trifluoro-3-(3,4,5-trichlorophenyl)pent-1-en-1-yl)-N-(1-((2,2,2-trifluoroethyl)carbamoyl)cyclopropyl)benzamide] |  |  | 50 to 100 |  |  | 50 to 100 |  | 
Cc1cc(C(/C=C(\F)c2ccc(C(=O)NC3(C(=O)N(C)CC(F)(F)F)CC3)c(C(F)(F)F)c2)C(F)(F)F)ccc1Cl (centres unmarked) [PF51, (Z)-4-(3-(4-Chloro-3-methylphenyl)-1,4,4,4-tetrafluorobut-1-en-1-yl)-N-(1-(methyl(2,2,2-trifluoroethyl)carbamoyl)cyclopropyl)-2-(trifluoromethyl)benzamide] |  |  | 50 to 100 |  |  | 50 to 100 |  | 
O=C(CNC(=O)c1ccc(/C(F)=C/C(c2ccc(Cl)c(Cl)c2)C(F)(F)F)cc1Br)NCC(F)(F)F (centres unmarked) [F124, (Z)-2-Bromo-4-(3-(3,4-dichlorophenyl)-1,4,4,4-tetrafluorobut-1-en-1-yl)-N-(2-oxo-2-((2,2,2-trifluoroethyl)amino)ethyl)benzamide] |  |  | 50 to 100 |  |  | 50 to 100 |  | 
C[C@@H](NC(=O)c1ccc(/C(F)=C/C(c2cc(Cl)c(Cl)c(Cl)c2)C(F)(F)F)cc1I)C(=O)NCC(F)(F)F (stereo partly drawn) [F67, 2-Iodo-N—((R)-1-oxo-1-((2,2,2-trifluoroethyl)amino)propan-2-yl)-4-((Z)-1,4,4,4-tetrafluoro-3-(3,4,5-trichlorophenyl)but-1-en-1-yl)benzamide] | 100 | 100 | 50 to 100 | 100 | 100 | 50 to 100 | 100 | 100
O=C(N[C@@H]1CON(CC(F)(F)F)C1=O)c1ccc(/C(F)=C/C(c2cc(Cl)c(Cl)c(Br)c2)C(F)(F)F)cc1C(F)(F)F (stereo partly drawn) [F197, 4-((Z)-3-(3-Bromo-4,5-dichlorophenyl)-1,4,4,4-tetrafluorobut-1-en-1-yl)-N—((R)-3-oxo-2-(2,2,2-trifluoroethyl)isoxazolidin-4-yl)-2-(trifluoromethyl)benzamide] |  |  | 50 to 100 |  |  | 50 to 100 |  | 
